The values below come from patent US11414416B1, “Compounds and uses thereof” (Foghorn Therapeutics Inc., priority 2019, dated 2022).

Usually IC50 stands for the midpoint of a concentration-inhibition curve. High values mean lower potency, low ones higher potency.

Some results are limits rather than exact numbers.

Sequence of Nanoluciferase-BRD9 fusion protein (Q9H8M2 whole entry, the tested form may be a part): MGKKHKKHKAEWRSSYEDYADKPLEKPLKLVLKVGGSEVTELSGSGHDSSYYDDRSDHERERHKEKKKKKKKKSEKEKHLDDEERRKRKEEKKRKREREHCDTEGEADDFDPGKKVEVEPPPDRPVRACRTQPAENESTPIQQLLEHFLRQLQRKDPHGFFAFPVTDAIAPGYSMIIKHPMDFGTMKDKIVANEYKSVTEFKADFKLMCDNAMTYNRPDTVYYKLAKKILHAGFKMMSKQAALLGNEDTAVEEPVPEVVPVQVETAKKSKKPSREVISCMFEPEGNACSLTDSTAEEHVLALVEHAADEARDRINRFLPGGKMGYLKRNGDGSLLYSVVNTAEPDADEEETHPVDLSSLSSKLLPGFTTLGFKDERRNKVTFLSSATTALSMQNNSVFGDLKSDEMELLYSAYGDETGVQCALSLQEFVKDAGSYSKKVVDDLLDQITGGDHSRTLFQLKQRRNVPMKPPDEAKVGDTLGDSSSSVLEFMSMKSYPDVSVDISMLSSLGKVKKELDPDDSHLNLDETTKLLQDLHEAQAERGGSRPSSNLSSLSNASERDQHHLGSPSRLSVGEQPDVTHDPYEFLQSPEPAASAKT

One test concerns the target Nanoluciferase-BRD9 fusion protein (Homo sapiens (Human), UniProt Q9H8M2). Put plainly: SYO1 BRD9 NanoLuc degradation assay. It is filed as cell-based. The following applies: Table 5A; SYO-1 cells expressing 3×FLAG-NLuc-BRD9, 6 hours. The method, then: Procedure: A stable SYO-1 cell line expressing 3×FLAG-NLuc-BRD9 was generated. On day 0 cells were seeded in 30 μL media into each well of 384-well cell culture plates. The seeding density was 8000 cells/well. […] Subsequently plates were incubated for 6 hours in a standard tissue culture incubator and equilibrated at room temperature for 15 minutes. Nanoluciferase activity was measured by adding 15 μL of freshly prepared Nano-Glo Luciferase Assay Reagent (Promega N1130), shaking the plates for 10 minutes and reading the bioluminescence using an EnVision reader.
DMSO treated cells are employed as High Control (HC) and 1 μM of a known BRD9 degrader standard treated cells are employed as Low Control (LC).
Consider `COc1cc(-c2cn(C)c(=O)c3cnccc23)cc(OC)c1CN1CC2(CCN(C(=O)CCOCCOc3cccc4c3C(=O)N(C3CCC(=O)NC3=O)C4=O)C2)C1` (centres unmarked) [Compound D90], for which the concentration for half-maximal inhibition (IC50) was 10 to 100 nM.

Staying with this test, now noted: Table 5A; SYO-1 cells expressing 3×FLAG-NLuc-BRD9, 6 hours; read-out: SYO1 BRD9-NanoLuc degradation IC50.
Turning to `COc1cc(-c2cn(C)c(=O)c3cnccc23)cc(OC)c1CN1CC(CC(=O)N2CCC3(CC2)CN(c2ccc4c(c2)C(=O)N(C2CCC(=O)NC2=O)C4=O)C3)C1` (centres unmarked) [Compound D76], the DC50 was less than 10 nM.

With `COc1cc(-c2cn(C)c(=O)c3cnccc23)cc(OC)c1CN1CC(CC(=O)N2CC3(CCN(c4ccc5c(c4)C(=O)N(C4CCC(=O)NC4=O)C5=O)C3)C2)C1` (centres unmarked) [Compound D77], the DC50 fell in the range of 100 to 1000 nM. Still for that read-out and setting: the figure for `COc1cc(-c2cn(C)c(=O)c3cnccc23)cc(OC)c1CN1CC(CC(=O)NC2CC3(C2)CC(Oc2ccc4c(c2)C(=O)N(C2CCC(=O)NC2=O)C4=O)C3)C1` (centres unmarked) [Compound D78] is 10 to 100 nM; for `COc1cc(-c2cn(C)c(=O)c3cnccc23)cc(OC)c1CN1CC(CC(=O)N2CC3(CCC(Oc4ccc5c(c4)C(=O)N(C4CCC(=O)NC4=O)C5=O)C3)C2)C1` (centres unmarked) [Compound D79] it is 100 to 1000 nM; for `COc1cc(-c2cn(C)c(=O)c3cnccc23)cc(OC)c1CN1CC(CC(=O)N2CCC3(CC2)CC(Oc2ccc4c(c2)C(=O)N(C2CCC(=O)NC2=O)C4=O)C3)C1` (centres unmarked) [Compound D80] it is less than 10 nM. Regarding `COc1cc(-c2cn(C)c(=O)c3cnccc23)cc(OC)c1CN1CC2(C1)CN(C(=O)C#Cc1ccc3c(c1)C(=O)N(C1CCC(=O)NC1=O)C3=O)C2` (centres unmarked) [Compound D81], the DC50 is less than 10 nM. The same measure, in the same setting: the figure for `COc1cc(-c2cn(C)c(=O)c3cnccc23)cc(OC)c1CN1CCC2(CC1)CC(NC(=O)CCOCCOc1cccc3c1C(=O)N(C1CCC(=O)NC1=O)C3=O)C2` (centres unmarked) [Compound D82] is 10 to 100 nM; for `COc1cc(-c2cn(C)c(=O)c3cnccc23)cc(OC)c1CN1CC(CCNC(=O)CCOCCOc2cccc3c2C(=O)N(C2CCC(=O)NC2=O)C3=O)C1` (centres unmarked) [Compound D83] it is 100 to 1000 nM.

The test is the same for the next values; noted with them: Table 5B; SYO-1 cells expressing 3×FLAG-NLuc-BRD9, 6 hours; read-out: SYO1 BRD9-NanoLuc degradation IC50.
For the compound `COc1cc(-c2cn(C)c(=O)c3cnccc23)cc(OC)c1CN(C)C1CCN(CCOc2ccc3c(c2)C(=O)N(C2CCC(=O)NC2=O)C3=O)CC1` (centres unmarked) [Compound D178], the DC50 is less than 10 nM.

As for `COc1cc(-c2cn(C)c(=O)c3cnccc23)cc(OC)c1CN1CC(S(=O)(=O)NCCN2CCN(c3ccc4c(c3)C(=O)N(C3CCC(=O)NC3=O)C4=O)CC2)C1` (centres unmarked) [Compound D179], the DC50 is 10 to 100 nM. The same measure, in the same setting: the figure for `COc1cc(-c2cn(C)c(=O)c3cnccc23)cc(OC)c1CN1CC(CC(=O)N2CCC3(CC2)CN(c2ccc4c(c2)C(=O)N(C2CCC(=O)NC2=O)C4=O)C3)C1` (centres unmarked) [Compound D180] is less than 10 nM; for `COc1cc(-c2cn(C)c(=O)c3cnccc23)cc(OC)c1CN1CC(CC(=O)N2CC3(CCN(c4ccc5c(c4)C(=O)N(C4CCC(=O)NC4=O)C5=O)C3)C2)C1` (centres unmarked) [Compound D181] it is 100 to 1000 nM; for `COc1cc(-c2cn(C)c(=O)c3cnccc23)cc(OC)c1CN1CC(CC(=O)NC2CC3(C2)CC(Oc2ccc4c(c2)C(=O)N(C2CCC(=O)NC2=O)C4=O)C3)C1` (centres unmarked) [Compound D182] it is 10 to 100 nM.

Turning to `COc1cc(-c2cn(C)c(=O)c3cnccc23)cc(OC)c1CN1CC(CC(=O)N2CC3(CCC(Oc4ccc5c(c4)C(=O)N(C4CCC(=O)NC4=O)C5=O)C3)C2)C1` (centres unmarked) [Compound D183], the DC50 lay in the range of 100 to 1000 nM. Same read-out and setting: the figure for `COc1cc(-c2cn(C)c(=O)c3cnccc23)cc(OC)c1CN1CC(CC(=O)N2CCC3(CC2)CC(Oc2ccc4c(c2)C(=O)N(C2CCC(=O)NC2=O)C4=O)C3)C1` (centres unmarked) [Compound D184] is less than 10 nM; for `COc1cc(-c2cn(C)c(=O)c3cnccc23)cc(OC)c1CN1CC2(C1)CN(C(=O)C#Cc1ccc3c(c1)C(=O)N(C1CCC(=O)NC1=O)C3=O)C2` (centres unmarked) [Compound D185] it is less than 10 nM; for `COc1cc(-c2cn(C)c(=O)c3cnccc23)cc(OC)c1CN(C)C(=O)CCCCN1CCC2(CC1)CN(c1ccc3c(c1)C(=O)N(C1CCC(=O)NC1=O)C3=O)C2` (centres unmarked) [Compound D186] it is less than 10 nM. `COc1cc(-c2cn(C)c(=O)c3cnccc23)cc(OC)c1CN(C)C(=O)CCCCN1CC2(CCN(c3ccc4c(c3)C(=O)N(C3CCC(=O)NC3=O)C4=O)C2)C1` (centres unmarked) [Compound D187]: the DC50 was less than 10 nM. On the same count and under the same terms, the result for `COc1cc(-c2cn(C)c(=O)c3cnccc23)cc(OC)c1CN(C)C(=O)CCCCN1CCC2(CCN(c3ccc4c(c3)C(=O)N(C3CCC(=O)NC3=O)C4=O)C2)C1` (centres unmarked) [Compound D188] reads less than 10 nM; that for `COc1cc(-c2cn(C)c(=O)c3cnccc23)cc(OC)c1CN1CC(CC(=O)NC2CC3(CCN(c4ccc5c(c4)C(=O)N(C4CCC(=O)NC4=O)C5=O)CC3)C2)C1` (centres unmarked) [Compound D189], less than 10 nM; that for `COc1cc(-c2cn(C)c(=O)c3cnccc23)cc(OC)c1CN1CC(CC(=O)N2CC3(CCN(c4ccc5c(c4)C(=O)N(C4CCC(=O)NC4=O)C5=O)CC3)C2)C1` (centres unmarked) [Compound D190], 10 to 100 nM.

`COc1cc(-c2cn(C)c(=O)c3cnccc23)cc(OC)c1CN1CC(CC(=O)N2CCC3(CC2)CCN(c2ccc4c(c2)C(=O)N(C2CCC(=O)NC2=O)C4=O)C3)C1` (centres unmarked) [Compound D191]: the DC50 is less than 10 nM. `COc1cc(-c2cn(C)c(=O)c3cnccc23)cc(OC)c1CN1CC(CC(=O)N2CCC3(CCN(c4ccc5c(c4)C(=O)N(C4CCC(=O)NC4=O)C5=O)C3)C2)C1` (centres unmarked) [Compound D192]: the DC50 was in the range of 100 to 1000 nM.

Regarding `COc1cc(-c2cn(C)c(=O)c3cnccc23)cc(OC)c1CN1CC(CC(=O)N2CCC3(C2)CN(c2ccc4c(c2)C(=O)N(C2CCC(=O)NC2=O)C4=O)C3)C1` (centres unmarked) [Compound D193], the DC50 lay within 100 to 1000 nM. `COc1cc(-c2cn(C)c(=O)c3cnccc23)cc(OC)c1CN1CC(CC(=O)NC2CC3(C2)CN(c2ccc4c(c2)C(=O)N(C2CCC(=O)NC2=O)C4=O)C3)C1` (centres unmarked) [Compound D194]: the DC50 is less than 10 nM. On the same count and under the same terms, the result for `COc1cc(-c2cn(C)c(=O)c3cnccc23)cc(OC)c1CN1CC(CC(=O)N2CC3(C2)CN(c2ccc4c(c2)C(=O)N(C2CCC(=O)NC2=O)C4=O)C3)C1` (centres unmarked) [Compound D195] reads 10 to 100 nM; that for `COc1cc(-c2cn(C)c(=O)c3cnccc23)cc(OC)c1CN1CCC2(CC1)CN(CCCC#Cc1ccc3c(c1)C(=O)N(C1CCC(=O)NC1=O)C3=O)C2` (centres unmarked) [Compound D196], 10 to 100 nM; that for `COc1cc(-c2cn(C)c(=O)c3cnccc23)cc(OC)c1CN1CCC2(CC1)CN(C(=O)C#Cc1ccc3c(c1)C(=O)N(C1CCC(=O)NC1=O)C3=O)C2` (centres unmarked) [Compound D197], less than 10 nM. As for `COc1cc(-c2cn(C)c(=O)c3cnccc23)cc(OC)c1CN1CC2(CCN(C(=O)C#Cc3ccc4c(c3)C(=O)N(C3CCC(=O)NC3=O)C4=O)CC2)C1` (centres unmarked) [Compound D198], the DC50 was less than 10 nM. On the same count and under the same terms, the figure for `COc1cc(-c2cn(C)c(=O)c3cnccc23)cc(OC)c1CN1CCN(C(=O)CCC#Cc2ccc3c(c2)C(=O)N(C2CCC(=O)NC2=O)C3=O)CC1` (centres unmarked) [Compound D199] is less than 10 nM; for `COc1cc(-c2cn(C)c(=O)c3cnccc23)cc(OC)c1CN1CC2(C1)CN(C(=O)CCC#Cc1ccc3c(c1)C(=O)N(C1CCC(=O)NC1=O)C3=O)C2` (centres unmarked) [Compound D200] it is 10 to 100 nM; for `COc1cc(-c2cn(C)c(=O)c3cnccc23)cc(OC)c1CN(C)C(=O)CCCCN1CC2(CCN(c3ccc4c(c3)C(=O)N(C3CCC(=O)NC3=O)C4=O)CC2)C1` (centres unmarked) [Compound D201] it is less than 10 nM. The same measure, in the same setting: the result for `COc1cc(-c2cn(C)c(=O)c3cnccc23)cc(OC)c1CN(C)C(=O)CCCCN1CCC2(CC1)CCN(c1ccc3c(c1)C(=O)N(C1CCC(=O)NC1=O)C3=O)C2` (centres unmarked) [Compound D202] reads less than 10 nM.

In the case of `COc1cc(-c2cn(C)c(=O)c3cnccc23)cc(OC)c1CN(C)C(=O)CCCCN1CCC2(C1)CN(c1ccc3c(c1)C(=O)N(C1CCC(=O)NC1=O)C3=O)C2` (centres unmarked) [Compound D203], the DC50 was less than 10 nM. Same read-out and setting: the figure for `COc1cc(-c2cn(C)c(=O)c3cnccc23)cc(OC)c1CN(C)C(=O)CCCCNC1CC2(C1)CN(c1ccc3c(c1)C(=O)N(C1CCC(=O)NC1=O)C3=O)C2` (centres unmarked) [Compound D204] is less than 10 nM; for `COc1cc(-c2cn(C)c(=O)c3cnccc23)cc(OC)c1CN(C)C(=O)CCCCN1CCC2C1CN2c1ccc2c(c1)C(=O)N(C1CCC(=O)NC1=O)C2=O` (centres unmarked) [Compound D205] it is less than 10 nM.

In the case of `COc1cc(-c2cn(C)c(=O)c3cnccc23)cc(OC)c1CN(C)C(=O)CCCCN1CC2(C1)CN(c1ccc3c(c1)C(=O)N(C1CCC(=O)NC1=O)C3=O)C2` (centres unmarked) [Compound D206], the DC50 was less than 10 nM.

Consider `COc1cc(-c2cn(C)c(=O)c3cnccc23)cc(OC)c1CN(C)C(=O)CCCCN1CC2(CCC(Oc3ccc4c(c3)C(=O)N(C3CCC(=O)NC3=O)C4=O)C2)C1` (centres unmarked) [Compound D207], for which the DC50 is less than 10 nM. The same measure, in the same setting: the figure for `COc1cc(-c2cn(C)c(=O)c3cnccc23)cc(OC)c1CN(C)C(=O)CCCCN1CCC2(CC1)CC(Oc1ccc3c(c1)C(=O)N(C1CCC(=O)NC1=O)C3=O)C2` (centres unmarked) [Compound D208] is less than 10 nM; for `COc1cc(-c2cn(C)c(=O)c3cnccc23)cc(OC)c1CN1CC(CC(=O)NC2CCC23CN(c2ccc4c(c2)C(=O)N(C2CCC(=O)NC2=O)C4=O)C3)C1` (centres unmarked) [Compound D209] it is 100 to 1000 nM. Turning to `COc1cc(-c2cn(C)c(=O)c3cnccc23)cc(OC)c1CN1CC(CC(=O)N2CCC3C2CN3c2ccc3c(c2)C(=O)N(C2CCC(=O)NC2=O)C3=O)C1` (centres unmarked) [Compound D210], the DC50 was 10 to 100 nM.

As to `COc1cc(-c2cn(C)c(=O)c3cnccc23)cc(OC)c1CN1CC2(CCN(CCCC#Cc3ccc4c(c3)C(=O)N(C3CCC(=O)NC3=O)C4=O)C2)C1` (centres unmarked) [Compound D211], the DC50 is less than 10 nM. Still for that read-out and setting: the result for `COc1cc(-c2cn(C)c(=O)c3cnccc23)cc(OC)c1CN1CC2(CCN(CCCC#Cc3ccc4c(c3)C(=O)N(C3CCC(=O)NC3=O)C4=O)CC2)C1` (centres unmarked) [Compound D212] reads 10 to 100 nM.
